Measurements from ChEMBL document CHEMBL1157348, “The alkaloid conessine and analogues as potent histamine H3 receptor antagonists” (J Med Chem, 2008).

Legend:
Histamine H3 receptor [1] = molecular target: T1, Histamine H3 receptor (Homo sapiens, UniProt Q9Y5N1); test: Displacement of [3H]NAMH from human full length histamine H3 receptor expressed in rat C6 cells; assay type: cell-based
Histamine H3 receptor [2] = molecular target: T2, Histamine H3 receptor (Rattus norvegicus, UniProt Q9QYN8); test: Displacement of [3H]NAMH from histamine H3 receptor in rat cortex
T2 sequence (Q9QYN8 whole entry): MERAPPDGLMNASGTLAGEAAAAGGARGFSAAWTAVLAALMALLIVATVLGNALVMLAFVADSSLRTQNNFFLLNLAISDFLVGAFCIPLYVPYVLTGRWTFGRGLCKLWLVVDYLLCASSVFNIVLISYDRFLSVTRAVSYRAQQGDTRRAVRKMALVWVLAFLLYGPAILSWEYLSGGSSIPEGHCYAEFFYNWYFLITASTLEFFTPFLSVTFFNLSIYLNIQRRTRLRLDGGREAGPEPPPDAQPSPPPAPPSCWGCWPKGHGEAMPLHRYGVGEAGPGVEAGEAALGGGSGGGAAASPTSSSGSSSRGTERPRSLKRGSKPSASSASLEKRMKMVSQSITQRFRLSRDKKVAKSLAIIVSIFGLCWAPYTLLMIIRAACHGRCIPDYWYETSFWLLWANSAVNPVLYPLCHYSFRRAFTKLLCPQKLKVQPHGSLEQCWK

[3] = molecular target: Histamine H3 receptor (Rattus norvegicus) (UniProt Q9QYN8); test: Antagonist activity at rat full length histamine H3 receptor expressed in HEK cells assessed as inhibition of forskolin-induced cAMP accumulation by SPA; conditions: HEK293
Histamine H3 receptor (Rattus norvegicus), sequence (Q9QYN8 whole entry): as above

[4] = molecular target: Histamine H3 receptor (Rattus norvegicus) (UniProt Q9QYN8); test: Antagonist activity at rat full length histamine H3 receptor assessed as inhibition of (R)-alpha-methylhistamine-induced intracellular calcium release by FLIPR; assay type: functional, cell-based
Histamine H3 receptor [5] = molecular target: T1, Histamine H3 receptor; test: Antagonist activity at human full length histamine H3 receptor expressed in HEK293 cells assessed as inhibition of (R)-alpha-methylhistamine-induced intracellular calcium release by FLIPR; assay type: functional, cell-based
Histamine H3 receptor [6] = molecular target: Histamine H3 receptor (Cavia porcellus, UniProt Q9JI35); test: Antagonist activity at histamine H3 receptor in guinea pig ileum assessed as inhibition of (R)-alpha-methylhistamine-induced response
Histamine H3 receptor (Cavia porcellus, UniProt Q9JI35), sequence (Q9JI35 whole entry): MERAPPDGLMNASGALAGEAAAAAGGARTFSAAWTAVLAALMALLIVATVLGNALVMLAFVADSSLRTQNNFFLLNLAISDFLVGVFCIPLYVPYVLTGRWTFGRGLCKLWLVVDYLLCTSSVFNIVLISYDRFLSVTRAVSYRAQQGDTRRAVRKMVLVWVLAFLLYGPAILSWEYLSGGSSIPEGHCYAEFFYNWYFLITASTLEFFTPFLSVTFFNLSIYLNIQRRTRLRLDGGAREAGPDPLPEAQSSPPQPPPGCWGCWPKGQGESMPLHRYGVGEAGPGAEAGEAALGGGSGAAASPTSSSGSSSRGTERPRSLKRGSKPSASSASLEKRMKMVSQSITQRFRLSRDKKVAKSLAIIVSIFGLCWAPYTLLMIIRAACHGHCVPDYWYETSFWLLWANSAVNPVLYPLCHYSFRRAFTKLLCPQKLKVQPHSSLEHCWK

Histamine H3 receptor [7] = molecular target: T1, Histamine H3 receptor; conditions: HEK293
[8] = Displacement of [3H]LY278584 from 5HT3 receptor in rat frontal cortex; assay type: tissue-based
[9] = Displacement of [3H]LY278584 from 5HT1 receptor in rat frontal cortex; assay type: tissue-based
[10] = Displacement of [3H]LY278584 from 5HT2 receptor in rat frontal cortex; assay type: tissue-based
[11] = molecular target: Histamine H3 receptor (Rattus norvegicus) (UniProt Q9QYN8); test: Antagonist activity at rat full length histamine H3 receptor expressed in rat C6 cells assessed as inhibition of [35S]gammaGTP binding relative to control; assay type: cell-based
Histamine H3 receptor [12] = molecular target: T1, Histamine H3 receptor; conditions: C6
Histamine H3 receptor [13] = molecular target: T2, Histamine H3 receptor; test: Displacement of [3H]NAMH from rat full length histamine H3 receptor expressed in rat C6 cells; assay type: cell-based; conditions: read-out: Ki
[14] = Oral bioavailability in rat; assay type: ADME, organism-based; conditions: in vivo

T1 sequence (Q9Y5N1 whole entry): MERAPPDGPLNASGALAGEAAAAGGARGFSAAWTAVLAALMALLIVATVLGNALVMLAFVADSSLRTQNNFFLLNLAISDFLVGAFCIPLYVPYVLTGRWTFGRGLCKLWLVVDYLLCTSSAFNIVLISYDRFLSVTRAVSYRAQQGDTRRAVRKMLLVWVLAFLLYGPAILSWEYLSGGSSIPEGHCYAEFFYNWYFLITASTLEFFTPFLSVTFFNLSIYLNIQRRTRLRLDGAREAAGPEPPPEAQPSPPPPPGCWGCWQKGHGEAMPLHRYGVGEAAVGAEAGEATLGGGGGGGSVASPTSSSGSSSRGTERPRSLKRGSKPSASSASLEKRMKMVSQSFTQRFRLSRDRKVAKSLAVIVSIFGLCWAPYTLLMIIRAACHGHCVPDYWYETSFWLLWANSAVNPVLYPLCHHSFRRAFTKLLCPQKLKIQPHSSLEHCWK

Compound | Ki (Histamine H3 receptor [1]) [nM] | Ki (Histamine H3 receptor [2]; read-out: Ki) [nM] | also measured
C[C@H]1[C@H]2CC[C@H]3[C@@H]4CC=C5C[C@@H](N(C)S(=O)(=O)c6ccccc6)CC[C@]5(C)[C@H]4CC[C@]23CN1C | 7.76 | 61.7 | –
CCS(=O)(=O)N(C)[C@H]1CC[C@@]2(C)C(=CC[C@H]3[C@@H]4CC[C@@H]5[C@H](C)N(C)C[C@@]54CC[C@@H]32)C1 | 23.4 | 141 | –
S=C(NC1CCCCC1)N1CCC(c2cnc[nH]2)CC1 [THIOPERAMIDE] | – | – | pKb [3]: 7.61; pKb [4]: 9.11; pKb (Histamine H3 receptor [5]): 6.82; Kb (Histamine H3 receptor [6]): 3.63 nM; pKb (Histamine H3 receptor [7]): 7.39; pKi [8]: 5.64; pKi [9]: 4.95; Ki (Histamine H3 receptor [2]; read-out: pKi (converted)): 7.08 nM; pKi [10]: 5.25; pKb [11]: 8.13; pKb (Histamine H3 receptor [12]): 6.1
C[C@H]1[C@H]2CC[C@H]3[C@@H]4CC=C5C[C@@H](N(C)C(=O)OCC(Cl)(Cl)Cl)CC[C@]5(C)[C@H]4CC[C@]23CN1C | 19.7 | – | Ki (Histamine H3 receptor [13]): 7.91 nM
CC(=O)N(C)[C@H]1CC[C@@]2(C)C(=CC[C@H]3[C@@H]4CC[C@@H]5[C@H](C)N(C)C[C@@]54CC[C@@H]32)C1 | 110 | 257 | –
C[C@H]1[C@H]2CC[C@H]3[C@@H]4CC=C5C[C@@H](N(C)C(=O)c6ccc(C#N)cc6)CC[C@]5(C)[C@H]4CC[C@]23CN1C | 39.8 | 195 | –
C[C@H]1[C@H]2CC[C@H]3[C@@H]4CC=C5C[C@@H](N(C)C(=O)Cc6cccs6)CC[C@]5(C)[C@H]4CC[C@]23CN1C | 3.31 | 11.2 | bioavailability [14]: 4.5%
COC(=O)N(C)[C@H]1CC[C@@]2(C)C(=CC[C@H]3[C@@H]4CC[C@@H]5[C@H](C)N(C)C[C@@]54CC[C@@H]32)C1 | 60.3 | 257 | –
C[C@H]1[C@H]2CC[C@H]3[C@@H]4CC=C5C[C@@H](N(C)c6ccc(C#N)cc6)CC[C@]5(C)[C@H]4CC[C@]23CN1C | 1.66 | 24 | –
CC(=O)N[C@@H](CC(C)C)C(=O)N(C)[C@H]1CC[C@@]2(C)C(=CC[C@H]3[C@@H]4CC[C@@H]5[C@H](C)N(C)C[C@@]54CC[C@@H]32)C1 | 1.62 | 6.76 | –
CC[C@@H](C)[C@@H](N)C(=O)N(C)[C@H]1CC[C@@]2(C)C(=CC[C@H]3[C@@H]4CC[C@@H]5[C@H](C)N(C)C[C@@]54CC[C@@H]32)C1 | 0.37 | 2.88 | –
CN(C)CCCOc1c(Br)cc(CCN(C)C)cc1Br [APLYSAMINE] | – | – | IC50 (Histamine H3 receptor [6]): 500 nM
C[C@H]1[C@H]2CC[C@H]3[C@@H]4CC=C5C[C@@H](N(C)S(=O)(=O)c6ccc(C#N)cc6)CC[C@]5(C)[C@H]4CC[C@]23CN1C | 19 | 138 | –
